Measurements: EP2246337A1, “Use of isoxazole derivatives as cyclooxygenase inhibitors” (Universita' degli Studi di Bari, priority 2004, dated 2005)
Like-named read-outs stand apart in the source and are kept apart here. Marks after values point to notes of the source that are not given here. Each block holds one molecule with its values, some of them ahead of it.

Key:
platelet COX-1 = target: T1, platelet COX-1 (Homo sapiens, UniProt P23219); test: COX-1 assay in isolated human whole blood allowed to clot (serum TXB2); assay type: cell-based; conditions: for IC50: isolated human whole blood clotting 1 hour at 37°C, TXB2, means of at least two experiments
T1 construct: 1 ml aliquots of isolated whole blood were immediately transferred into glass test tubes and kept at a temperature of 37°C; endogenous in cells; host or cells: platelets in human whole blood (healthy volunteers / study subjects)
Procedure: 11 healthy volunteers (6 females aged between 25 and 29 years) were enrolled to participate in the study after each having given their written approval.
1 ml aliquots of isolated whole blood were immediately transferred into glass test tubes and kept at a temperature of 37°C for 1 hour. The serum was separated by centrifugation (10 min at 3000 rpm) and kept at -70°C until assayed for thromboxane (TX)B2.
From 4 to 9 different concentrations of each compound were incubated with heparinised isolated whole blood samples in the presence of LPS (10 micrograms/ml) for 24 hours or with isolated whole blood samples allowed to clot at 37°C for 1 hour, in order to examine the concentration-dependence of COX-2 vs. COX-1 inhibition, respectively.
The concentrations of PGE2 and TXB2 were measured by radioimmunological assays (Patrono C. et al.. Low dose aspirin and inhibition of thromboxane B2 production in healthy subjects. Thromb. Res. 1980; 17: 317-27; Ciabattoni G. et al. J Endocrinol Invest 1979; 2:173-182). Isolated plasma and serum samples were diluted in the standard diluent of the assay (0.02M phosphate buffer, pH 7.4) and assayed in a volume of 1.5 ml at a final dilution of 1:50-1:30.000. 4000 d.p.m. of [^3H]-PGE2 or [^3H]-TXB2 were used and specific anti-PGE2 and anti-TXB2 antibody diluted 1:100,000 and 1:120,000, respectively. The least detectable concentration was 1-2 pg/ml for both prostanoids.

monocyte COX-2 = target: T2, monocyte COX-2 (Homo sapiens, UniProt P35354); test: COX-2 assay in LPS-stimulated isolated human whole blood (plasma PGE2); assay type: cell-based; conditions: for IC50: heparinised isolated human whole blood, LPS 10 micrograms/ml, 24 hours, PGE2, means of at least two experiments
T2 construct: isolated peripheral venous blood samples containing 10 IU of sodium heparin were incubated in the laboratory in the presence of LPS; endogenous in cells; host or cells: monocytes in LPS-stimulated heparinised human whole blood
T2 sequence (P35354 18-604): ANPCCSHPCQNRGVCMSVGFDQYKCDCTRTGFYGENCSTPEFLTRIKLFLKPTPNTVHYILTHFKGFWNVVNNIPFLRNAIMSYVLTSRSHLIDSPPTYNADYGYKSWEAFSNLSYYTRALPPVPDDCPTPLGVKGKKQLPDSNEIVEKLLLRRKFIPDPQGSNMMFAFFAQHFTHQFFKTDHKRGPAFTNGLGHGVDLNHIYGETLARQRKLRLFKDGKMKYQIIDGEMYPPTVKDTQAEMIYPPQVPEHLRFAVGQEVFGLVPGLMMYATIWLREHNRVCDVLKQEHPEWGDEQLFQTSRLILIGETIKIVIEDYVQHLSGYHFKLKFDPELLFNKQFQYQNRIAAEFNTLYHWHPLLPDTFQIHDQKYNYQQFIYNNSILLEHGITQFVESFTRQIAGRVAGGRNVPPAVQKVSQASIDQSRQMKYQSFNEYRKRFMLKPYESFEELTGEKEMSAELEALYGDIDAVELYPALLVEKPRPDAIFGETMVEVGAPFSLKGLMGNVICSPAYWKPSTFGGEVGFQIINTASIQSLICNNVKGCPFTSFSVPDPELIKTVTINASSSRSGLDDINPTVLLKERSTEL

COX-1 platelet activity = target: T3, COX-1 platelet activity (Homo sapiens, UniProt P23219); test: Ex vivo platelet COX-1 activity (serum TXB2) in subjects treated with rofecoxib; conditions: median (range); for Serum Thromboxane B2: rofecoxib 25 mg per day for 5 consecutive days; for COX-1 platelet activity, % of variation vs pretreatment values: 25 mg per day for 5 consecutive days
T3 construct: 1 ml aliquots of isolated whole blood were immediately transferred into glass test tubes and kept at a temperature of 37°C; endogenous in cells; host or cells: platelets in human whole blood (healthy volunteers / study subjects)
Procedure: (§3) Subjects with disturbances of a haemorrhagic nature, allergy to aspirin or to other non-steroidal anti-inflammatory drugs (NSAID) or with a history of gastrointestinal disorders were excluded from the study. The subjects refrained from using aspirin or other non-steroidal anti-inflammatory drugs (NSAID) for at least two weeks prior to the study. The blood samples were taken to determine COX-1 platelet activity and COX-2 monocyte activity before treatment with the drug and 12 hours after the last administration (at 8 a.m. on the sixth day of the study).
(§4) The effects of Rofecoxib on COX-1 platelet activity were assessed (assessing the production of serum TXB2 as described in Patrono et al., Thromb Res 1980;17:317-27) and on COX-2 monocyte activity (measuring the production of PGE2 in whole blood stimulated with LPS, as described in Patrignani et al., J Pharmacol Exp Ther 1994;271:1705-12).

COX-2 monocyte activity [1] = target: T4, COX-2 monocyte activity (Homo sapiens, UniProt P35354); conditions: rofecoxib 25 mg per day for 5 consecutive days, median (range)
Procedure: as §3, §4

COX-2 monocyte activity [2] = target: T4, COX-2 monocyte activity; test: in vivo
Procedure: as §3, §4

[3] = test system: biosynthesis of prostacyclin; test: Urinary excretion of 2,3-dinor-6-keto-PGF1α (index of systemic prostacyclin biosynthesis in vivo) after rofecoxib; parameters: species or system human; conditions: for percent change from pretreatment at 25 mg: Homo sapiens, 120 h
From the text: (§1) The collection of overnight urine samples was obtained to assess the urinary excretion of 11-dehydro-thromboxane B2 and of 2,3-dinor-6-keto-PGF1α before treatment with the drug and after the last dose of rofecoxib.
(§2) Biochim Biophys Acta 1987;918:293-7. […] J Pharmacol Exp Ther 1995;275:94-100).

[4] = test system: biosynthesis of Thromboxane A2; test: Urinary excretion of 11-dehydro-thromboxane B2 (index of systemic thromboxane A2 biosynthesis in vivo) after rofecoxib; parameters: species or system human; conditions: median (range); for 11-dehydro-thromboxane B2: rofecoxib 25 mg per day for 5 consecutive days, overnight urine; for urinary excretion of 11-dehydro-TXB2, % of pre-drug values: 25 mg per day for 5 days
From the text: as §1, §2

T1 sequence (P23219 24-599): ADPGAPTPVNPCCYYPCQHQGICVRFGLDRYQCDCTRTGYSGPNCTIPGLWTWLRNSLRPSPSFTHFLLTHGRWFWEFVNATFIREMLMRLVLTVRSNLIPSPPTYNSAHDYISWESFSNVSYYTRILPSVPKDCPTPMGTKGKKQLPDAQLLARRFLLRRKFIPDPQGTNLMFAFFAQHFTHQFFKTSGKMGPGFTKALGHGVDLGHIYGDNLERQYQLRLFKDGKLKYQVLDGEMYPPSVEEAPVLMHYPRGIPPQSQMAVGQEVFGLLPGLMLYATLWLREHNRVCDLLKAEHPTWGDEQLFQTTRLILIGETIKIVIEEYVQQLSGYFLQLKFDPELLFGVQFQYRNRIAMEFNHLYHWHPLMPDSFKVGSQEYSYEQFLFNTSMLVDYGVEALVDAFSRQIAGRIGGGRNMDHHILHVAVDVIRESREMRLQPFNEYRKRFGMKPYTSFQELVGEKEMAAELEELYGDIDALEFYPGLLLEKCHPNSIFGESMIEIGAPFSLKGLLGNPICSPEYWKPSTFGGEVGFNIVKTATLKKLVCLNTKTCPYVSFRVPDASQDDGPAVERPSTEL
T3 sequence (P23219 24-599): as above

- COX-1 inhibition (result in words) (platelet COX-1): excellent COX-1 inhibitors
- IC50 (platelet COX-1): 90 nM
- IC50 (monocyte COX-2): 2490 nM
SMILES: Cc1onc(-c2ccccc2)c1-c1ccccc1 [2a (P10), 3,4-Diphenyl-5-methylisoxazole]

- COX-1 inhibition (result in words) (platelet COX-1): excellent COX-1 inhibitors
- suppression of platelet COX-1 activity (platelet COX-1; at concentrations that do not affect monocyte COX-2 activity, concentration-response curves): > 90%
- IC50 (platelet COX-1): 500 nM
- effect on monocyte COX-2 activity (monocyte COX-2; at concentrations giving virtually complete suppression of platelet COX-1 activity): do not affect monocyte COX-2 activity
SMILES: Cc1onc(-c2ccc(Cl)o2)c1-c1ccccc1 [2c (P6), 3-(5-Chloro-2-furyl)-4-phenyl-5-methylisoxazole]

- COX-1 inhibition (result in words) (platelet COX-1): excellent COX-1 inhibitors
- IC50 (platelet COX-1): 50 nM
- IC50 (monocyte COX-2): 1490 nM
SMILES: CCc1onc(-c2ccccc2)c1-c1ccccc1 [2g (P9), 3,4-Diphenyl-5-ethylisoxazole]

SMILES: CS(=O)(=O)c1ccc(C2=C(c3ccccc3)C(=O)OC2)cc1 [Rofecoxib]
- Serum Thromboxane B2 (COX-1 platelet activity; "Wild-type" TLR4 subjects): 233.5 (178-391) ng/ml
- Serum Thromboxane B2 (COX-1 platelet activity; Carriers of TLR4 Polymorphisms): 225 (94-728) ng/ml
- COX-1 platelet activity, % of variation vs pretreatment values (COX-1 platelet activity; carriers of TLR4 polymorphism): -11(from 0 to -57) %
- COX-1 platelet activity, % of variation vs pretreatment values (COX-1 platelet activity; non carriers of TLR4 polymorphism): -10(from 0 to -10) %
- Prostaglandin E2 induced by lipopolysaccharide (COX-2 monocyte activity [1]; "Wild-type" TLR4 subjects): 2.3 (0.3-4.2) ^** ng/ml
- Prostaglandin E2 induced by lipopolysaccharide (COX-2 monocyte activity [1]; Carriers of TLR4 Polymorphisms): 5.3 (1.9-11)^** ng/ml
- inhibition at 25 mg (COX-2 monocyte activity [2]; read-out: monocyte COX-2 activity ex vivo, % inhibition, carriers of TLR4 polymorphism, 25 mg per day for 5 consecutive days, median (range)): -94%
- inhibition at 25 mg (COX-2 monocyte activity [2]; read-out: monocyte COX-2 activity ex vivo, % inhibition, non carriers of TLR4 polymorphism, 25 mg per day for 5 consecutive days, median (range)): -85%
- 2,3 dinor-6 keto-prostaglandin F1α ([3]; "Wild-type" TLR4 subjects, rofecoxib 25 mg per day for 5 consecutive days, overnight urine, median (range)): 56.5(38-84)^* pg/mg creatinine
- 2,3 dinor-6-keto-prostaglandin F1α ([3]; Carriers of TLR4 Polymorphisms, rofecoxib 25 mg per day for 5 consecutive days, overnight urine, median (range)): 50 (28-93)^* pg/mg creatinine
- percent change from pretreatment at 25 mg ([3]; read-out: inhibition of the urinary excretion of 2,3-dinor-6-keto PGF1α, "wild-type" subjects (second value of 'respectively'), 25 mg per day for 5 days, median (range)): -61%
- percent change from pretreatment at 25 mg ([3]; read-out: inhibition of the urinary excretion of 2,3-dinor-6-keto PGF1α, carriers of TLR4 polymorphisms (first value of 'respectively'), 25 mg per day for 5 days, median (range)): -64%
- inhibition of prostacyclin ([3]; similar in the two groups of patients (carriers of TLR4 polymorphisms and wild-type)): about 60%
- 11-dehydro-thromboxane B2 ([4]; "Wild-type" TLR4 subjects): 345 (155-595.6) pg/mg creatinine
- urinary excretion of 11-dehydro-TXB2, % of pre-drug values ([4]; "wild-type" subjects): 71 (67-84) %
- 11-dehydro-thromboxane B2 ([4]; Carriers of TLR4 Polymorphisms): 329 (158-587)^* pg/mg creatinine
- urinary excretion of 11-dehydro-TXB2, % of pre-drug values ([4]; carriers of TLR4 polymorphisms): 174 (136-354) %
